Marks after values point to notes of the source that are not given here. Starred links: 1 amine or outer side, 2 acyl side, 3 side chain; linkers in the order of their positions; H or OH if unused. Non-standard residues stand in square brackets, D forms with d. Residues, ends and D or L forms follow the SMILES beside them. Groups on a side chain read outwards from the residue. *: point of attachment. C20 diacid = O=C(O)CCCCCCCCCCCCCCCCCCC(=O)*; γGlu = O=C(O)[C@H](CCC(=O)[*:2])N[*:1]; AEEA = NCCOCCOCC(=O)O; Aib = CC(C)(N)C(=O)O
Test system: type 2 diabetic mouse (db/db) model
Test: Efficacy study in db/db mice at 10 nM/kg dose (blood glucose, body weight, food intake)
Format: in vivo
Conditions: for Cumulative food Intake (g) 0-48 hr. vs. Baseline, Mean / Cumulative food Intake (g) 0-96 hr. vs. Baseline, Mean / Delta Blood Glucose (mM) Mean / Body Wt. Change (%) 48 hr. vs. Baseline, Mean / Body Wt. Change (%) 96 hr. vs. Baseline, Mean: 10 nM/kg s.c. single dose; for blood glucose reduction / body weight reduction / reduction in food consumption: db/db mice, 10 nM/kg s.c., vs diabetic control
Description: The effect of compounds of present invention on blood glucose, food intake and body weight was studied in mice. This study was performed in a type 2 diabetic mouse (db/db) model. […] Baseline blood glucose was measured from all the animals. […] All the animals were administered with test items subcutaneously. […] Delta blood glucose (mM) was calculated.

[1] = Study 2, db/db mice, 0 hr (baseline)

| SMILES | Cumulative food Intake (g) 0-48 hr. vs. Baseline, Mean (Study 2, db/db mice) | Cumulative food Intake (g) 0-96 hr. vs. Baseline, Mean (Study 2, db/db mice) | Delta Blood Glucose (mM) Mean [1] [mM] | Delta Blood Glucose (mM) Mean (Study 2, db/db mice, 4 hr) | Delta Blood Glucose (mM) Mean (Study 2, db/db mice, 8 hr) | Delta Blood Glucose (mM) Mean (Study 2, db/db mice, 12 hr) | Delta Blood Glucose (mM) Mean (Study 2, db/db mice, 24 hr) | Body Wt. Change (%) 48 hr. vs. Baseline, Mean (Study 2, db/db mice, 48 hr) | Delta Blood Glucose (mM) Mean (Study 2, db/db mice, 48 hr) | Delta Blood Glucose (mM) Mean (Study 2, db/db mice, 72 hr) | Body Wt. Change (%) 96 hr. vs. Baseline, Mean (Study 2, db/db mice, 96 hr) | Delta Blood Glucose (mM) Mean (Study 2, db/db mice, 96 hr) [mM] | blood glucose reduction | body weight reduction | reduction in food consumption | further results |
| --- | --- | --- | --- | --- | --- | --- | --- | --- | --- | --- | --- | --- | --- | --- | --- | --- |
| CC[C@H](C)[C@H](NC(=O)[C@H](CCCCN)NC(=O)[C@H](CC(=O)O)NC(=O)[C@H](CC(C)C)NC(=O)[C@H](CC(C)C)NC(=O)[C@@H](NC(=O)[C@H](CO)NC(=O)[C@H](Cc1ccc(O)cc1)NC(=O)[C@H](CC(=O)O)NC(=O)[C@H](CO)NC(=O)[C@@H](NC(=O)[C@H](Cc1ccccc1)NC(=O)[C@@H](NC(=O)CNC(=O)[C@H](CCC(=O)O)NC(=O)C(C)(C)NC(=O)[C@@H](N)Cc1ccc(O)cc1)[C@@H](C)O)[C@@H](C)O)[C@@H](C)CC)C(=O)N[C@@H](C)C(=O)N[C@@H](CCC(N)=O)C(=O)N[C@@H](CCCCNC(=O)COCCOCCNC(=O)C(C)(C)NC(=O)CC[C@H](NC(=O)CCCCCCCCCCCCCCCCCCC(=O)O)C(=O)O)C(=O)N[C@@H](C)C(=O)N[C@@H](Cc1ccccc1)C(=O)N[C@H](C(=O)N[C@@H](CCC(N)=O)C(=O)N[C@@H](Cc1c[nH]c2ccccc12)C(=O)N[C@@H](CC(C)C)C(=O)N[C@H](C(=O)N[C@@H](C)C(=O)NCC(=O)NCC(=O)N1CCC[C@H]1C(=O)N[C@@H](CO)C(=O)N[C@@H](CO)C(=O)NCC(=O)N[C@@H](C)C(=O)N1CCC[C@H]1C(=O)N1CCC[C@H]1C(=O)N1CCC[C@H]1C(=O)N[C@@H](CO)C(N)=O)[C@@H](C)CC)C(C)C [Compound 3] (H-Y[Aib]EGTFTSDYSILLDKIAQK([AEEA-Aib-γGlu-C20 diacid])AFVQWLIAGGPSSGAPPPS-NH2) | 6.0*** g | 16.0*** g | 0 | −10.3*** mM | −13.9*** mM | −15.8*** mM | −10.9*** mM | −5.6*** % | −6.6*** mM | 0.1 mM | −4.9*** % | -0.7 | statistically significant blood glucose reduction upto 96 hr post treatment | statistically significant reduction in food intake and body weight | statistically significant reduction in food intake |  |
| CCC[C@H](NC(=O)[C@@H](NC(=O)[C@H](CO)NC(=O)[C@H](Cc1ccc(O)cc1)NC(=O)[C@H](CC(=O)O)NC(=O)[C@H](CO)NC(=O)[C@@H](NC(=O)[C@H](Cc1ccccc1)NC(=O)[C@@H](NC(=O)CNC(=O)[C@H](CCC(=O)O)NC(=O)C(C)(C)NC(=O)[C@@H](N)Cc1ccc(O)cc1)[C@@H](C)O)[C@@H](C)O)[C@@H](C)CC)C(=O)N[C@@H](CC(C)C)C(=O)N[C@@H](CC(=O)O)C(=O)N[C@@H](CCCCN)C(=O)N[C@H](C(=O)N[C@@H](C)C(=O)N[C@@H](CCC(N)=O)C(=O)N[C@@H](CCCCNC(=O)COCCOCCNC(=O)COCCOCCNC(=O)CC[C@H](NC(=O)CCCCCCCCCCCCCCCCCCC(=O)O)C(=O)O)C(=O)N[C@@H](C)C(=O)N[C@@H](Cc1ccccc1)C(=O)N[C@H](C(=O)N[C@@H](CCC(N)=O)C(=O)N[C@@H](Cc1c[nH]c2ccccc12)C(=O)N[C@@H](CC(C)C)C(=O)N[C@H](C(=O)N[C@@H](C)C(=O)NCC(=O)NCC(=O)N1CCC[C@H]1C(=O)N[C@@H](CO)C(=O)N[C@@H](CO)C(=O)NCC(=O)N[C@@H](C)C(=O)N1CCC[C@H]1C(=O)N1CCC[C@H]1C(=O)N1CCC[C@H]1C(=O)N[C@@H](CO)C(N)=O)[C@@H](C)CC)C(C)C)[C@@H](C)CC [Compound 6] | 4.2*** g | 16.0*** g | 0 | −15.6*** mM | −15.9*** mM | −16.3*** mM | −11.8*** mM | −5.5*** % | −9.5*** mM | −2.6* mM | −2.2** % | -1.6 | statistically significant blood glucose reduction upto 96 hr post treatment | statistically significant reduction in food intake and body weight | statistically significant reduction in food intake |  |
| CC[C@H](NC(=O)[C@@H](NC(=O)[C@H](CO)NC(=O)[C@H](Cc1ccc(O)cc1)NC(=O)[C@H](CC(=O)O)NC(=O)[C@H](CO)NC(=O)[C@@H](NC(=O)[C@H](Cc1ccccc1)NC(=O)[C@@H](NC(=O)CNC(=O)[C@H](CCC(=O)O)NC(=O)C(C)(C)NC(=O)[C@@H](N)Cc1ccc(O)cc1)[C@@H](C)O)[C@@H](C)O)[C@@H](C)CC)C(=O)N[C@@H](CC(C)C)C(=O)N[C@@H](CC(=O)O)C(=O)N[C@@H](CCCCN)C(=O)N[C@H](C(=O)N[C@@H](C)C(=O)N[C@@H](CCC(N)=O)C(=O)N[C@@H](CCCCNC(=O)COCCOCCNC(=O)C(C)(C)NC(=O)CC[C@H](NC(=O)CCCCCCCCCCCCCCCCCCC(=O)O)C(=O)O)C(=O)N[C@@H](C)C(=O)N[C@@H](Cc1ccccc1)C(=O)N[C@H](C(=O)N[C@@H](CCC(N)=O)C(=O)N[C@@H](Cc1c[nH]c2ccccc12)C(=O)N[C@@H](CC(C)C)C(=O)N[C@H](C(=O)N[C@@H](C)C(=O)NCC(=O)NCC(=O)N1CCC[C@H]1C(=O)N[C@@H](CO)C(=O)N[C@@H](CO)C(=O)NCC(=O)N[C@@H](C)C(=O)N1CCC[C@H]1C(=O)N1CCC[C@H]1C(=O)N1CCC[C@H]1C(=O)N[C@@H](CO)C(N)=O)[C@@H](C)CC)C(C)C)[C@@H](C)CC [Compound 10] |  |  |  |  |  |  |  |  |  |  |  |  |  |  |  | Cumulative food Intake (g) 0-48 hr. vs. Baseline, Mean (Study 4, db/db mice): 8.2*** g; Cumulative food Intake (g) 0-96 hr. vs. Baseline, Mean (Study 4, db/db mice): 20.5** g; Delta Blood Glucose (mM) Mean (Study 4, db/db mice, 0 hr (baseline)): 0 mM; Delta Blood Glucose (mM) Mean (Study 4, db/db mice, 4 hr): −12.1*** mM; Delta Blood Glucose (mM) Mean (Study 4, db/db mice, 8 hr): −13.6*** mM; Delta Blood Glucose (mM) Mean (Study 4, db/db mice, 12 hr): −14.7*** mM; Delta Blood Glucose (mM) Mean (Study 4, db/db mice, 24 hr): −15.6*** mM; Body Wt. Change (%) 48 hr. vs. Baseline, Mean (Study 4, db/db mice, 48 hr): −4.5*** %; Delta Blood Glucose (mM) Mean (Study 4, db/db mice, 48 hr): −4.0** mM; Delta Blood Glucose (mM) Mean (Study 4, db/db mice, 72 hr): 2.3 mM; Body Wt. Change (%) 96 hr. vs. Baseline, Mean (Study 4, db/db mice, 96 hr): −3.1*** %; Delta Blood Glucose (mM) Mean (Study 4, db/db mice, 96 hr): 1.7 mM |

— patent US12622948B2 (SUN PHARMACEUTICAL INDUSTRIES LIMITED, priority 2020, dated 2026)
